According to ChEMBL document CHEMBL3045173, “Synthesis, antibacterial, and antitubercular studies of some novel isatin derivatives” (2012):
Values after ≈ are worked out from the molar mass of the structure shown.

Tests used:
Type in all cases: functional
[1] = test system: Mycobacterium tuberculosis; assay: Antimicrobial activity against Mycobacterium tuberculosis H37Rv ATCC 27294 after 7 days by MABA; conditions: for MIC90: Mycobacterium tuberculosis, H37Rv ATCC 27294, 168 h
[2] = test system: Staphylococcus epidermidis; assay: Antimicrobial activity against Staphylococcus epidermidis ATCC 155 after 24 hr by agar streak dilution method; conditions: ATCC 155, 24 h
[3] = test system: Micrococcus luteus; assay: Antimicrobial activity against Micrococcus luteus ATCC 4698 after 24 hr by agar streak dilution method; conditions: ATCC 4698, 24 h
[4] = test system: Staphylococcus aureus; assay: Antimicrobial activity against Staphylococcus aureus ATCC 9144 after 24 hr by agar streak dilution method; conditions: ATCC 9144, 24 h
[5] = test system: Bacillus cereus; assay: Antimicrobial activity against Bacillus cereus ATCC 11778 after 24 hr by agar streak dilution method; conditions: ATCC 11778, 24 h
[6] = test system: Micrococcus luteus; assay: Antimicrobial activity against Micrococcus luteus ATCC 4698 at 100 ug/ml after 24 hr by paper disk diffusion method; conditions: ATCC 4698, 24 h, read-out: IZ
[7] = test system: Staphylococcus epidermidis; assay: Antimicrobial activity against Staphylococcus epidermidis ATCC 155 at 100 ug/ml after 24 hr by paper disk diffusion method; conditions: ATCC 155, 24 h, read-out: IZ
[8] = test system: Bacillus cereus; assay: Antimicrobial activity against Bacillus cereus ATCC 11778 at 100 ug/ml after 24 hr by paper disk diffusion method; conditions: ATCC 11778, 24 h, read-out: IZ
[9] = test system: Staphylococcus aureus; assay: Antimicrobial activity against Staphylococcus aureus ATCC 9144 at 100 ug/ml after 24 hr by paper disk diffusion method; conditions: ATCC 9144, 24 h, read-out: IZ

| Compound | inhibition (INH) [1] | MIC90 [1] | MIC [2] | MIC [3] | MIC [4] | MIC [5] | zone of inhibition at 100 µg/mL [6] | zone of inhibition at 100 µg/mL [7] | zone of inhibition at 100 µg/mL [8] | zone of inhibition at 100 µg/mL [9] |
| --- | --- | --- | --- | --- | --- | --- | --- | --- | --- | --- |
| O=[N+]([O-])c1cn2c(n1)OC[C@@H](OCc1ccc(OC(F)(F)F)cc1)C2 [PRETOMANID] | 100% | 0.25 µM (≈ 0.0898 µg/mL) | – | – | – | – | – | – | – | – |
| COc1ccc(/C=N/c2ccc(/N=C3\C(=O)N(Cc4ccccc4)c4ccccc43)cc2)cc1OC | 73% | – | 20.2 µg/mL (≈ 42.5 µM) | 19.6 µg/mL (≈ 41.2 µM) | 11.8 µg/mL (≈ 24.8 µM) | 21.2 µg/mL (≈ 44.6 µM) | 17 mm | 18 mm | 16 mm | 22 mm |
| O=C1/C(=N\c2ccc(/N=C/c3ccc(Cl)cc3)cc2)c2ccccc2N1Cc1ccccc1 | 90% | – | 9.8 µg/mL (≈ 21.8 µM) | 11.2 µg/mL (≈ 24.9 µM) | 10.4 µg/mL (≈ 23.1 µM) | 12.1 µg/mL (≈ 26.9 µM) | 23 mm | 25 mm | 19 mm | 21 mm |
| NNC(=O)c1ccncc1 [ISONIAZID] | 100% | 0.74 µM (≈ 0.101 µg/mL) | – | – | – | – | – | – | – | – |
| CN(C)c1ccc(/C=N/c2ccc(/N=C3\C(=O)N(Cc4ccccc4)c4ccccc43)cc2)cc1 | 79% | – | 24 µg/mL (≈ 52.3 µM) | 19.7 µg/mL (≈ 43 µM) | 22.8 µg/mL (≈ 49.7 µM) | 20.7 µg/mL (≈ 45.1 µM) | 18 mm | 14 mm | 15 mm | 17 mm |
| O=C1/C(=N\c2ccc(/N=C/c3ccc(Br)cc3)cc2)c2ccccc2N1Cc1ccccc1 | 96% | 4.26 µM (≈ 2.11 µg/mL) | 21.2 µg/mL (≈ 42.9 µM) | 16.3 µg/mL (≈ 33 µM) | 19.3 µg/mL (≈ 39 µM) | 15.3 µg/mL (≈ 30.9 µM) | 20 mm | 18 mm | 17 mm | 19 mm |
| COc1ccc(/C=N/c2ccc(/N=C3\C(=O)N(Cc4ccccc4)c4ccccc43)cc2)cc1 | 80% | – | 14.8 µg/mL (≈ 33.2 µM) | 12.4 µg/mL (≈ 27.8 µM) | 13.6 µg/mL (≈ 30.5 µM) | 17.1 µg/mL (≈ 38.4 µM) | 20 mm | 23 mm | 17 mm | 19 mm |
| O=C1/C(=N\c2ccc(/N=C/c3ccc([N+](=O)[O-])cc3)cc2)c2ccccc2N1Cc1ccccc1 | 80% | – | 20.4 µg/mL (≈ 44.3 µM) | 27.8 µg/mL (≈ 60.4 µM) | 25.2 µg/mL (≈ 54.7 µM) | 19.2 µg/mL (≈ 41.7 µM) | 13 mm | 19 mm | 16 mm | 15 mm |
| COc1c(N2C[C@@H]3CCCN[C@@H]3C2)c(F)cc2c(=O)c(C(=O)O)cn(C3CC3)c12 [MOXIFLOXACIN] | 100% | 0.25 µM (≈ 0.1 µg/mL) | – | – | – | – | – | – | – | – |
| O=C(O)c1cn(C2CC2)c2cc(N3CCNCC3)c(F)cc2c1=O [CIPROFLOXACIN] | – | – | 0.35 µg/mL (≈ 1.06 µM) | 0.1 µg/mL (≈ 0.302 µM) | 0.2 µg/mL (≈ 0.604 µM) | 0.3 µg/mL (≈ 0.905 µM) | 30 mm | 29 mm | 25 mm | 25 mm |
| COc1cc(/C=N/c2ccc(/N=C3\C(=O)N(Cc4ccccc4)c4ccccc43)cc2)ccc1O | 80% | – | 13.8 µg/mL (≈ 29.9 µM) | 18.7 µg/mL (≈ 40.5 µM) | 18.2 µg/mL (≈ 39.4 µM) | 18.6 µg/mL (≈ 40.3 µM) | 19 mm | 22 mm | 17 mm | 19 mm |
| O=C1/C(=N\c2ccc(/N=C/c3ccccc3O)cc2)c2ccccc2N1Cc1ccccc1 | 90% | – | 17.6 µg/mL (≈ 40.8 µM) | 20.6 µg/mL (≈ 47.7 µM) | 13.2 µg/mL (≈ 30.6 µM) | 16.7 µg/mL (≈ 38.7 µM) | 17 mm | 20 mm | 18 mm | 20 mm |
| CO[C@H]1/C=C/O[C@@]2(C)Oc3c(C)c(O)c4c(O)c(c(/C=N/N5CCN(C)CC5)c(O)c4c3C2=O)NC(=O)/C(C)=C\C=C\[C@H](C)[C@H](O)[C@@H](C)[C@@H](O)[C@@H](C)[C@H](OC(C)=O)[C@@H]1C [RIFAMPIN] | 100% | 0.06 µM (≈ 0.0494 µg/mL) | – | – | – | – | – | – | – | – |
